Assays:
[1] = target: Serine/threonine-protein kinase WNK3 (Homo sapiens) (UniProt Q9BYP7); test: Inhibition of human WNK3 at 10 uM after 60 mins by TR-FRET assay; values are per cent of control
[2] = target: Tyrosine-protein kinase BTK (Homo sapiens) (UniProt Q06187); test: Inhibition of human BTK at 10 uM after 60 mins by TR-FRET assay; values are per cent of control
[3] = target: Tyrosine-protein kinase Lck (Homo sapiens) (UniProt P06239); test: Inhibition of human Lck at 10 uM after 60 mins by TR-FRET assay; settings: values are per cent of control
[4] = target: Dual specificity protein kinase CLK2 (Homo sapiens) (UniProt P49760); test: Inhibition of human CLK2 at 10 uM after 60 mins by TR-FRET assay; values are per cent of control
[5] = target: Serine/threonine-protein kinase ULK2 (Homo sapiens) (UniProt Q8IYT8); test: Inhibition of human ULK2 at 10 uM after 60 mins by TR-FRET assay; values are per cent of control
[6] = target: Rho-associated protein kinase 1 (Homo sapiens) (UniProt Q13464); test: Inhibition of human ROCK-1 at 10 uM after 60 mins by TR-FRET assay; values are per cent of control
[7] = target: 3-phosphoinositide-dependent protein kinase 1 (Homo sapiens) (UniProt O15530); test: Inhibition of human PDK1 at 10 uM after 60 mins by TR-FRET assay; values are per cent of control
[8] = target: PAS domain-containing serine/threonine-protein kinase (Homo sapiens) (UniProt Q96RG2); test: Inhibition of human PASK at 10 uM after 60 mins by TR-FRET assay; values are per cent of control
[9] = target: Inhibitor of nuclear factor kappa-B kinase subunit alpha (Homo sapiens) (UniProt O15111); test: Inhibition of human IKKalpha at 10 uM after 60 mins by TR-FRET assay; values are per cent of control
[10] = target: Cyclin-dependent kinase 5/CDK5 activator 1 (Homo sapiens) (UniProt Q00535+Q15078); test: Inhibition of human CDK5/p25 at 10 uM after 60 mins by TR-FRET assay; values are per cent of control
[11] = target: cAMP-dependent protein kinase catalytic subunit PRKX (Homo sapiens) (UniProt P51817); test: Inhibition of human PrKX at 10 uM after 60 mins by TR-FRET assay; values are per cent of control
[12] = target: Serine/threonine-protein kinase 17B (Homo sapiens) (UniProt O94768); test: Inhibition of human DYRK2 at 10 uM after 60 mins by TR-FRET assay; values are per cent of control
[13] = target: Fibroblast growth factor receptor 1 (Homo sapiens) (UniProt P11362); test: Inhibition of human FGFR1 at 10 uM after 60 mins by TR-FRET assay; values are per cent of control
[14] = target: Tyrosine-protein kinase Lyn (Mus musculus) (UniProt P25911); test: Inhibition of mouse Lyn at 10 uM after 60 mins by TR-FRET assay; values are per cent of control
[15] = system: Mitogen-activated protein kinase 14 (Homo sapiens), Q16539 [T106M]; test: Inhibition of human SAPK2a T106M mutant at 10 uM after 60 mins by TR-FRET assay; settings: values are per cent of control
[16] = target: CDK9/cyclin T1 (Homo sapiens) (UniProt O60563+P50750); test: Inhibition of human CDK9/cyclin T1 at 10 uM after 60 mins by TR-FRET assay; values are per cent of control
[17] = target: Calcium/calmodulin-dependent protein kinase type IV (Homo sapiens) (UniProt Q16566); test: Inhibition of human CaMK4 at 10 uM after 60 mins by TR-FRET assay; values are per cent of control
[18] = target: Ribosomal protein S6 kinase beta-1 (Homo sapiens) (UniProt P23443); test: Inhibition of human p70S6K at 10 uM after 60 mins by TR-FRET assay; values are per cent of control
[19] = target: Tyrosine-protein kinase ABL1 (Homo sapiens) (UniProt P00519); test: Inhibition of human Abl at 10 uM after 60 mins by TR-FRET assay; values are per cent of control
[20] = target: Serine/threonine-protein kinase tousled-like 2 (Homo sapiens) (UniProt Q86UE8); test: Inhibition of human TLK2 at 10 uM after 60 mins by TR-FRET assay; values are per cent of control
[21] = system: Tyrosine-protein kinase ABL1 (Homo sapiens), P00519 [T315I]; test: Inhibition of human Abl T315I mutant at 10 uM after 60 mins by TR-FRET assay; values are per cent of control
[22] = target: Tyrosine-protein kinase ABL1 (Mus musculus) (UniProt P00520); test: Inhibition of mouse Abl at 10 uM after 60 mins by TR-FRET assay; values are per cent of control
[23] = target: Ribosomal protein S6 kinase alpha-3 (Homo sapiens) (UniProt P51812); test: Inhibition of human Rsk2 at 10 uM after 60 mins by TR-FRET assay; settings: values are per cent of control

Fibroblast growth factor receptor 1 (Homo sapiens), sequence (P11362 22-822 limits assumed): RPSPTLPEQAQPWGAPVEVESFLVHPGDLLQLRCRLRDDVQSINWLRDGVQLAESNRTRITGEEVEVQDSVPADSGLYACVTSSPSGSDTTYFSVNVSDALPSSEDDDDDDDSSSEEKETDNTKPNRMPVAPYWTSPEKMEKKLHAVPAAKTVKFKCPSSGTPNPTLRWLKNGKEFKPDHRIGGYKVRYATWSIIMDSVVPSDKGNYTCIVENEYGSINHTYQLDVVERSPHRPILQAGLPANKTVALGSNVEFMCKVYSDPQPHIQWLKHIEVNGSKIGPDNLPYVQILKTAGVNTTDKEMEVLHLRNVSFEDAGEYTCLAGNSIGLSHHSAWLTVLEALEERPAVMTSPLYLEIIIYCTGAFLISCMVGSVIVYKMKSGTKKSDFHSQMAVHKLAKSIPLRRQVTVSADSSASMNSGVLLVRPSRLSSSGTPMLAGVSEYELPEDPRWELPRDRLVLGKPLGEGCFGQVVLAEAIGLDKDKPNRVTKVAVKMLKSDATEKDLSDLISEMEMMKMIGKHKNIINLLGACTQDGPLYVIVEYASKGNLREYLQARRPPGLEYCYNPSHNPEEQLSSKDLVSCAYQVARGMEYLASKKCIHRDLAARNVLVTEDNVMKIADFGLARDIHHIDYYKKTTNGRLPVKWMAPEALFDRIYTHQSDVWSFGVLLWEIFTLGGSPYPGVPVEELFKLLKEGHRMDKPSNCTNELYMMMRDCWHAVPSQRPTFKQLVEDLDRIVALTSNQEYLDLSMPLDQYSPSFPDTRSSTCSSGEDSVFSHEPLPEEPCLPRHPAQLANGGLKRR
Tyrosine-protein kinase Lyn (Mus musculus), sequence (P25911 whole entry): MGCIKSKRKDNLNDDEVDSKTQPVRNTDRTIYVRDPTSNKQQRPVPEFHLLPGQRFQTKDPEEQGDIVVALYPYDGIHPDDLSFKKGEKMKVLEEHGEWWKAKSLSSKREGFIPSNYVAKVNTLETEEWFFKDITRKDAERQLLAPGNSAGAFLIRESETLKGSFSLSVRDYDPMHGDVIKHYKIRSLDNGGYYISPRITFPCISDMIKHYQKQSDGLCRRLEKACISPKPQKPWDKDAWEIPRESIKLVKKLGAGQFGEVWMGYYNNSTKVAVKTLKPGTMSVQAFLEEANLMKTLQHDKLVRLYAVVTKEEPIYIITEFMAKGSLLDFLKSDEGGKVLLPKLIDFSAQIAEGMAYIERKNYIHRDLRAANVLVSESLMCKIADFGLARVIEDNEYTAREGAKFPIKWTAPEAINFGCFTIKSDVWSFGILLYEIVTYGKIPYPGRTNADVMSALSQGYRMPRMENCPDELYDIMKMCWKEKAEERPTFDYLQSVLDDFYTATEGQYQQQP
Tyrosine-protein kinase ABL1 (Mus musculus), sequence (P00520 whole entry): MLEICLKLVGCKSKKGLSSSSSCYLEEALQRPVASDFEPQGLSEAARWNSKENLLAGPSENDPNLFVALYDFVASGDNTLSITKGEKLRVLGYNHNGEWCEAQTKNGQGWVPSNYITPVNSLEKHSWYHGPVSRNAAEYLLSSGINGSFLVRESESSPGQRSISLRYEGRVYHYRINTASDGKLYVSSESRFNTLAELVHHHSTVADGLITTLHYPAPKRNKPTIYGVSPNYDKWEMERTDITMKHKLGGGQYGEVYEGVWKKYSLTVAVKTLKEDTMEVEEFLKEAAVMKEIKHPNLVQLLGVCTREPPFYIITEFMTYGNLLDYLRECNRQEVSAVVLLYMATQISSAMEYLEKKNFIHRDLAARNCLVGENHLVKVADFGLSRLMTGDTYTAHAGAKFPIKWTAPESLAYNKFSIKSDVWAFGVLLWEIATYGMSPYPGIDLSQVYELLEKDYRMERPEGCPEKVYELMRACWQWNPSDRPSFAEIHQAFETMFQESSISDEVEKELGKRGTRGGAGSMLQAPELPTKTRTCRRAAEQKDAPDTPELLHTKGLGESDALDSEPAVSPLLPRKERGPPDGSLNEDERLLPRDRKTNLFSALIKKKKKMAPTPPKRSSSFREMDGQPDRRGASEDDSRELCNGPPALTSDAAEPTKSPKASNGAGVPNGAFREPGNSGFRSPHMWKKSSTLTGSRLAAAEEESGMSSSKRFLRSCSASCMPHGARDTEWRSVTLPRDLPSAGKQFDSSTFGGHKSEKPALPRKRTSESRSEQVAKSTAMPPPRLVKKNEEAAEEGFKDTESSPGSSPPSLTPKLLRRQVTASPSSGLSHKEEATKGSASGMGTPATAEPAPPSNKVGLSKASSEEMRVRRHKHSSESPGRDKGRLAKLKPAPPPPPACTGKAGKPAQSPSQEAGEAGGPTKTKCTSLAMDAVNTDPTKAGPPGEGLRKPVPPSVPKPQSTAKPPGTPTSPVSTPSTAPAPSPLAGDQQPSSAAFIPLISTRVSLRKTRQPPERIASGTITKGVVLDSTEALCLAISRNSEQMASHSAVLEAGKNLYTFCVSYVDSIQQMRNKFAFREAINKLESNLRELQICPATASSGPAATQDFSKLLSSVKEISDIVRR
Calcium/calmodulin-dependent protein kinase type IV (Homo sapiens), sequence (Q16566 whole entry): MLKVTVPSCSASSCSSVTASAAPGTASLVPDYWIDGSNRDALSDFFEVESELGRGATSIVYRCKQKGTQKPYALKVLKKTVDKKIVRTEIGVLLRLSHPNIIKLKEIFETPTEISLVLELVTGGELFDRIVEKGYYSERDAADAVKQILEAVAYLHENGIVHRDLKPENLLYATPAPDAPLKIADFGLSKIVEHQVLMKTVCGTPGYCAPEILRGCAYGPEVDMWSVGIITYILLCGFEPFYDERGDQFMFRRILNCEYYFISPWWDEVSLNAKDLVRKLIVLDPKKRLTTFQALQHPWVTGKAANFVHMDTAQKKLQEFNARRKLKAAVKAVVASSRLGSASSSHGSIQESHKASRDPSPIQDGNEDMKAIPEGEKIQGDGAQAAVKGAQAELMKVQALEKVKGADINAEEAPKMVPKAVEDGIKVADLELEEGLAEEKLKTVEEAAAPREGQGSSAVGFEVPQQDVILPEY
Mitogen-activated protein kinase 14 (Homo sapiens), Q16539 [T106M], sequence (Q16539 whole entry T106M): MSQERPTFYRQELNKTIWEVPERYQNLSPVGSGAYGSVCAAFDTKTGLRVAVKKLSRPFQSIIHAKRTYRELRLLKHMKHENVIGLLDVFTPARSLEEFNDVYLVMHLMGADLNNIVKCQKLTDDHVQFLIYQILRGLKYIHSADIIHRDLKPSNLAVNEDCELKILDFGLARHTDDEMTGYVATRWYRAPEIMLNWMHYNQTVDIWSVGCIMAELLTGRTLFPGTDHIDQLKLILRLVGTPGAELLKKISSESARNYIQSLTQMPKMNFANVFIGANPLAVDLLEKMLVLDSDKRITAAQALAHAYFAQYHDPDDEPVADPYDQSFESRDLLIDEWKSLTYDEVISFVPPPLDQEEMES
Tyrosine-protein kinase BTK (Homo sapiens), sequence (Q06187 whole entry): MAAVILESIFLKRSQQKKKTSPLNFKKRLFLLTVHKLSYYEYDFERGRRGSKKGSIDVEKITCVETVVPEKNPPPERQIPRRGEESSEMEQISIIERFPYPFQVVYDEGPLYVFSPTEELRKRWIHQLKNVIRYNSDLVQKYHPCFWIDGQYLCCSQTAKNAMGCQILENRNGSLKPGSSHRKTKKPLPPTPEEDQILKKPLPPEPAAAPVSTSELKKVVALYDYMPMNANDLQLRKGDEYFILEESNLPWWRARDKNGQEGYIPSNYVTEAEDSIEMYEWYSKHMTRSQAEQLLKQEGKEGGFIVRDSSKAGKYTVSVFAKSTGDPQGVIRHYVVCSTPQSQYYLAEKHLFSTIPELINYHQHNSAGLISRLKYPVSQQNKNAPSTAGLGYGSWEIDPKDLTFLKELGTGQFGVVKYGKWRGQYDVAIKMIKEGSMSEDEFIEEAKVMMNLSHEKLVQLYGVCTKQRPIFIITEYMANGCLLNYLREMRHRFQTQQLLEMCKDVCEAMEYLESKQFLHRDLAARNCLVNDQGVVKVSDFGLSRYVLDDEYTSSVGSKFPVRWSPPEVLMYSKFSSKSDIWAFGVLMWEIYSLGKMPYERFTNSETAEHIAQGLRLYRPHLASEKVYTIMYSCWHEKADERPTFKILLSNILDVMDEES
Serine/threonine-protein kinase ULK2 (Homo sapiens), sequence (Q8IYT8 whole entry): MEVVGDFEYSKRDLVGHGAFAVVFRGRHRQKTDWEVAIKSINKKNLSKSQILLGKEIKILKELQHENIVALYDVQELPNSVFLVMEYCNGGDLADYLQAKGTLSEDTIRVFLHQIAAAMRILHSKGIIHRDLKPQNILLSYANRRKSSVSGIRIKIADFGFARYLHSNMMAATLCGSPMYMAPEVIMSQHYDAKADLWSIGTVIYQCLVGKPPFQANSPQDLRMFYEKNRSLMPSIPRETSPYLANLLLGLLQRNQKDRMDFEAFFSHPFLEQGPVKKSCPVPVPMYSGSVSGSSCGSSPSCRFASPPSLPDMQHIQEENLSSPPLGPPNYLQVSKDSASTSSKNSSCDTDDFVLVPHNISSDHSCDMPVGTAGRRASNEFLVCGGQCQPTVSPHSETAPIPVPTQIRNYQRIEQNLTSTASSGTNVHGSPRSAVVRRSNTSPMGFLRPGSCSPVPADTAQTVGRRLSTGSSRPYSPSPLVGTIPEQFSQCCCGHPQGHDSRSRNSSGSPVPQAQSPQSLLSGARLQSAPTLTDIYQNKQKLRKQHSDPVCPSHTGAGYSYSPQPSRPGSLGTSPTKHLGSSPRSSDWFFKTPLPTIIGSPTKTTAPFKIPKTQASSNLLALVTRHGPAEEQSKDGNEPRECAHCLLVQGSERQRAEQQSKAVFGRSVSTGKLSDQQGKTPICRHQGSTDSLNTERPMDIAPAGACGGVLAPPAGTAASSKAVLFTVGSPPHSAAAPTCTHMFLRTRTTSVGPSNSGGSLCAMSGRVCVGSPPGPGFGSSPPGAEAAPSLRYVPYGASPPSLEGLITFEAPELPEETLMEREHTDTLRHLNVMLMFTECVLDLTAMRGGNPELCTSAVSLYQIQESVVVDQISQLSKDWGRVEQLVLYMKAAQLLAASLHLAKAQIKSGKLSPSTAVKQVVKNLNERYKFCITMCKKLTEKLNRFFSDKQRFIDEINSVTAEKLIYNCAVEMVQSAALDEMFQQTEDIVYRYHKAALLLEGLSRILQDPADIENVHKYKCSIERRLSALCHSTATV

residual activity [1]: 100%
residual activity [2]: 118%
residual activity [3]: 76%
residual activity [4]: 104%
residual activity [5]: 103%
residual activity [6]: 110%
residual activity [7]: 108%
residual activity [8]: 99%
residual activity [9]: 100%
residual activity [10]: 112%
residual activity [11]: 134%
residual activity [12]: 104%
residual activity [13]: 98%
residual activity [14]: 100%
residual activity [15]: 104%
residual activity [16]: 110%
residual activity [17]: 112%
residual activity [18]: 102%
residual activity [19]: 113%
residual activity [20]: 110%
residual activity [21]: 110%
residual activity [22]: 94%
residual activity [23]: 98%
SMILES: S=c1[nH]nc(-c2ccncc2)n1-c1ccc2ccccc2c1
